Results on one compound are retold here after patent US10537535B2, “Histone deacetylase inhibitors” (The Regents of the University of California, priority 2015, dated 2020).

In one experiment the target is T1, human HDAC1 (Homo sapiens, UniProt Q13547).
T1 construct: purchased Cayman Chemical 10011563
In words: Fluorometric HDAC activity assay, purified human HDAC1. The format is biochemical. How it is done:
The ability of diacetyl (odor 1) to inhibit human HDAC activity was investigated using in-vitro assays with a human HDAC1 kit.
In order to directly test whether diacetyl acts as an inhibitor of HDACs, in vitro acetylation assays was performed with purified human HDACs. […]
HDAC activity of class I HDACs (HDAC1, 2, 3 and 8) was measured with the fluorometric HDAC Activity Assay kit: HDAC1 (10011563, Cayman Chemical, Ann Arbor, Mich.), HDAC2, HDAC 3 and HDAC 8 (50062, 50073 and 50068, BPS Bioscience, San Diego, Calif.), according to the manufacturer's instructions.

Another experiment concerns the target T2, human HDAC2 (Homo sapiens, UniProt Q92769).
T2 construct: purchased BPS Bioscience 50062
In words: Fluorometric HDAC activity assay, purified human HDAC2. The format is biochemical. Particulars: purified human HDAC2, n=4-5. How it is done:
(§1) In order to directly test whether diacetyl acts as an inhibitor of HDACs, in vitro acetylation assays was performed with purified human HDACs. In this example, β-hydroxybutyrate (a naturally-occurring HDAC inhibitor secreted by the liver, targeting zinc-dependent HDACs) was used for comparison. HDAC activity of class I HDACs (HDAC1, 2, 3 and 8) was measured with the fluorometric HDAC Activity Assay kit: HDAC1 (10011563, Cayman Chemical, Ann Arbor, Mich.), HDAC2, HDAC 3 and HDAC 8 (50062, 50073 and 50068, BPS Bioscience, San Diego, Calif.), according to the manufacturer's instructions.

In a further experiment the target is T3, human HDAC3 (Homo sapiens, UniProt O15379).
T3 construct: purchased BPS Bioscience 50073
T3 sequence (O15379 whole entry): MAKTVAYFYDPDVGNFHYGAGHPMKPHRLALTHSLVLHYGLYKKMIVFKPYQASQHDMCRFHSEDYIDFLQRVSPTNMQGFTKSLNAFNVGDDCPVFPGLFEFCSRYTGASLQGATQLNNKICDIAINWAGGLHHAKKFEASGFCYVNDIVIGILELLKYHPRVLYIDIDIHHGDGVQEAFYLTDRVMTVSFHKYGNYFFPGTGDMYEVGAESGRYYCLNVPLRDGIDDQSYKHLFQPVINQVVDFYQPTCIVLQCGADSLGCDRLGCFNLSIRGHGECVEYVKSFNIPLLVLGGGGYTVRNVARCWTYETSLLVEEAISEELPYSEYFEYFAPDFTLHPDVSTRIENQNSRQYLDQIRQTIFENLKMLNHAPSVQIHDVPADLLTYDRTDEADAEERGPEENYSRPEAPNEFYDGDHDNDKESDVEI
T3 sequence (Q9Y618 395-489 partner limits assumed): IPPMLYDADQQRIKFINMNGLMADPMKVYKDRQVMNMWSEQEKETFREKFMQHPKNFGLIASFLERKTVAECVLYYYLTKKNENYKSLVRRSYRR
The experiment can be described thus: Fluorometric HDAC activity assay, purified human HDAC3. The format is biochemical. The settings on record: purified human HDAC3, n=4-5. As to the method: as §1

Experiment [1] deals with H4K5 acetylation in HEK293 cells. The experiment can be described thus: Western blot of histone acetylation in HEK293 nuclear extracts: H4K5. The format is cell-based, human. As to the method:
In order to test whether diacetyl can increase acetylation of histones in vivo, human HEK293 cells were used, which offer a tractable system to prepare nuclear extracts. The cells were exposed to different doses of diacetyl for 2 or 6 hours, and monitored histone acetylation levels by Western blot analysis from nuclear extract. […] The acetylation levels of H3K14 and H4K5 were not affected (FIG. 5A).
Human embryonic kidney 293 (HEK293) cells were grown in 100 mm cell culture dishes with Dulbecco's modified Eagle's medium (DMEM) (10-013, Corning, Manassas, Va.), supplemented with 10% fetal bovine serum (FBS) (26140-079, Gibco, Carlsbad, Calif.) at 37° C. with 5% CO2. Cells that were ˜80% confluent were treated with freshly-prepared medium supplemented with diacetyl at concentrations indicated. In order to prevent diffusion of diacetyl odor from the treatment dishes to the outside environment, the cell culture dishes were put into a custom-made container (155.6×155.6×85.7 mm) with a charcoal filter top. […]
Proteins in the nuclear extracts (60 μg protein) were separated by SDS-PAGE gels (456-1043, Bio-Rad, Hercules, Calif.), transferred onto PVDF membranes (162-0174, Bio-Rad), and incubated with anti-histone antibodies: acetylated H3K9 (1/2000: ab4441, abeam, Cambridge, Mass.), acetylated H3K14 (1/5000: 06-911, EMD Millipore, Billerica, Mass.), acetylated H4K5 (1/2000: 07-327, EMD Millipore). Bound antibody was detected by horseradish peroxidase-conjugated anti-rabbit secondary antibody (1/20000: 1705046, Bio-Rad) and developed using Clarity™ Western ECL Substrate (1705060, Bio-Rad). Signals were detected and captured by ImageQuant™ LAS 4000 mini (GE healthcare, Pittsburgh, Pa.), and band intensities were quantified with ImageJ software. H3K9 acetylation intensity in individual lanes was reported relative to the normalized Mock treatment (Mock H3K9ace/Mock PCNA), and calculated using this formula: Relative H3K9ace intensity for each timepoint=(Diacetyl H3K9ace/diacetyl PCNA)/(Mock H3K9ace/Mock PCNA).
Background: In western blotting, separated proteins are transferred to a membrane and probed.

The structures appear in SMILES notation.

T1 sequence (Q13547 whole entry): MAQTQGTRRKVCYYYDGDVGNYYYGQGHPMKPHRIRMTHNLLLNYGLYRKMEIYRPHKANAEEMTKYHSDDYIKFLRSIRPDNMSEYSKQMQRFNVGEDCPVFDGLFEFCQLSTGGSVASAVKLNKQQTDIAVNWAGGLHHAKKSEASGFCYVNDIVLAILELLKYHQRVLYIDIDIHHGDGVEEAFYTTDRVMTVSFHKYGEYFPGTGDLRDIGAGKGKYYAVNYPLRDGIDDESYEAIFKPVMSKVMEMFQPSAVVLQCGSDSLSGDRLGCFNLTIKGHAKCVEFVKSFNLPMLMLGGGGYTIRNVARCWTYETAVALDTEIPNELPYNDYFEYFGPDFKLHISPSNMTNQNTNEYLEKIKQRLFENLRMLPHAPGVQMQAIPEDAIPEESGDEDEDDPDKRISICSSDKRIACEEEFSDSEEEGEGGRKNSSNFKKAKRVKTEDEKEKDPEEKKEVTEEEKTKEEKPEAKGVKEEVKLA
T2 sequence (Q92769 whole entry): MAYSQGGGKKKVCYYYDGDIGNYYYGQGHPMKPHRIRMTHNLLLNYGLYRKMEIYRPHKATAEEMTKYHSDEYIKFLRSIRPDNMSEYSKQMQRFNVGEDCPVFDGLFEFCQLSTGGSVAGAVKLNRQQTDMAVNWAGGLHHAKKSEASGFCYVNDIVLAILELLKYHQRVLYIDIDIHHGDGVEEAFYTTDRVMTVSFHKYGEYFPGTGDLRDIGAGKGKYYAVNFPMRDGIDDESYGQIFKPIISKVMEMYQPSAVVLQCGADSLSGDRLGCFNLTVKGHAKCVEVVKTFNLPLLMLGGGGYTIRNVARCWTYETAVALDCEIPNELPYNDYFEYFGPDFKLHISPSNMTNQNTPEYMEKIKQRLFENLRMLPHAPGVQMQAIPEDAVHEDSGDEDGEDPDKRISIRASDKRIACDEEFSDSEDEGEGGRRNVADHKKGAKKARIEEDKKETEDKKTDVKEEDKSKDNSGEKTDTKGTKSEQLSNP

In general, IC50 refers to the concentration needed to halve the response being measured. Higher therefore signals a need for much substance. As to `CC(=O)C(C)=O` [diacetyl, 2,3-Butanedione], the “inhibition of human HDAC activity (human HDAC1 kit)” value against human HDAC1 (compared with sodium butyrate, FIG. 1C) was “effective HDAC inhibitor and comparable to sodium butyrate”. The IC50 against human HDAC1 (purified human HDAC1, n=4-5) was found to be 7.2 mM; at human HDAC2, 11.2 mM; at human HDAC3 it was 7.72 mM. The H4K5 acetylation level entry is “did not alter” in experiment [1] (1 mM, 2 or 6 hours); “not affected” in experiment [1] (10 mM, 2 hours); “unaffected” in experiment [1] (10 mM, 6 hours).
